The term MIC denotes the smallest concentration in the dilution series that meets the test's criterion for growth inhibition. The MBC is the smallest concentration meeting the test's criterion for killing.

Here are results for six molecules from ChEMBL document CHEMBL4828726, “Modification of 5-methylphenanthridium from benzothiazoles to indoles as potent FtsZ inhibitors: Broadening the antibacterial spectrum toward vancomycin-resistant enterococci” (Eur J Med Chem, 2021).

Common to all, as to assay type: functional
Experiment [1] deals with Bacillus subtilis. Briefly: Antibacterial activity against penicillin-susceptible Bacillus subtilis ATCC 9372 assessed as inhibition of bacterial growth measured after 20 hrs by two-fold microdilution assay. For orientation: In broth dilution the organism is exposed to a series of concentrations in liquid medium.
Experiment [2] relates to Bacillus pumilus. Briefly: Antibacterial activity against penicillin-susceptible Bacillus pumilus CMCC63202 assessed as inhibition of bacterial growth measured after 20 hrs by two-fold microdilution assay.
Experiment [3] relates to Staphylococcus aureus. Briefly: Antibacterial activity against erythromycin-susceptible Staphylococcus aureus ATCC 25923 assessed as inhibition of bacterial growth measured after 20 hrs by two-fold microdilution assay.
Experiment [4] relates to Streptococcus pyogenes. Briefly: Antibacterial activity against erythromycin-susceptible Streptococcus pyogenes assessed as inhibition of bacterial growth measured after 20 hrs by two-fold microdilution assay.
Experiment [5] concerns Escherichia coli. As to the kind of experiment: Antibacterial activity against penicillin-susceptible Escherichia coli ATCC 25922 assessed as inhibition of bacterial growth measured after 20 hrs by two-fold microdilution assay.
Experiment [6] concerns Pseudomonas aeruginosa. Briefly: Antibacterial activity against penicillin-susceptible Pseudomonas aeruginosa ATCC 27853 assessed as inhibition of bacterial growth measured after 20 hrs by two-fold microdilution assay.
Experiment [7] deals with Staphylococcus aureus. As to the kind of experiment: Antibacterial activity against methicillin-resistant Staphylococcus aureus ATCC43300 assessed as inhibition of bacterial growth measured after 20 hrs by two-fold microdilution assay.
Experiment [8] deals with Staphylococcus aureus. Briefly: Antibacterial activity against penicillin-resistant Staphylococcus aureus ATCC 31007 assessed as inhibition of bacterial growth measured after 20 hrs by two-fold microdilution assay.
Experiment [9] concerns Staphylococcus aureus. Briefly: Antibacterial activity against clinical isolate Staphylococcus aureus C1 assessed as inhibition of bacterial growth measured after 20 hrs by two-fold microdilution assay.
The subject of experiment [10] is Streptococcus pyogenes. As to the kind of experiment: Antibacterial activity against erythromycin-resistant Streptococcus pyogenes assessed as inhibition of bacterial growth measured after 20 hrs by two-fold microdilution assay.
For experiment [11], the system named is Staphylococcus epidermidis. As to the kind of experiment: Antibacterial activity against penicillin-resistant Staphylococcus epidermidis assessed as inhibition of bacterial growth measured after 20 hrs by two-fold microdilution assay.
The test system of experiment [12] is Enterococcus faecalis. As to the kind of experiment: Antibacterial activity against Vancomycin-susceptible Enterococcus faecalis ATCC 29212 assessed as inhibition of bacterial growth measured after 20 hrs by two-fold microdilution assay.
For experiment [13], the system named is Enterococcus faecium. As to the kind of experiment: Antibacterial activity against Vancomycin-susceptible Enterococcus faecium ATCC 19434 assessed as inhibition of bacterial growth measured after 20 hrs by two-fold microdilution assay.
Experiment [14] deals with Enterococcus faecium. As to the kind of experiment: Antibacterial activity against Vancomycin-resistant Enterococcus faecium ATCC 51559 assessed as inhibition of bacterial growth measured after 20 hrs by two-fold microdilution assay.
Experiment [15] relates to Enterococcus faecalis. As to the kind of experiment: Antibacterial activity against Vancomycin-resistant Enterococcus faecalis ATCC 51299 assessed as inhibition of bacterial growth measured after 20 hrs by two-fold microdilution assay.
In experiment [16] the test system is Bacillus subtilis. Briefly: Bactericidal activity against penicillin-susceptible Bacillus subtilis ATCC 9372 assessed as inhibition of bacterial growth measured after 20 hrs by two-fold microdilution assay.
Experiment [17] concerns Staphylococcus aureus. As to the kind of experiment: Bactericidal activity against erythromycin-susceptible Staphylococcus aureus ATCC 25923 assessed as inhibition of bacterial growth measured after 20 hrs by two-fold microdilution assay.
For experiment [18], the system named is Bacillus pumilus. Briefly: Bactericidal activity against penicillin-susceptible Bacillus pumilus CMCC63202 assessed as inhibition of bacterial growth measured after 20 hrs by two-fold microdilution assay.
Experiment [19] concerns Staphylococcus aureus. As to the kind of experiment: Bactericidal activity against methicillin-resistant Staphylococcus aureus ATCC43300 assessed as inhibition of bacterial growth measured after 20 hrs by two-fold microdilution assay.
Experiment [20] has as its system Staphylococcus aureus. Briefly: Bactericidal activity against penicillin-resistant Staphylococcus aureus ATCC 31007 assessed as inhibition of bacterial growth measured after 20 hrs by two-fold microdilution assay.
The subject of experiment [21] is Bacillus pumilus. As to the kind of experiment: Ratio of MBC to MIC against penicillin-susceptible Bacillus pumilus CMCC63202.
The test system of experiment [22] is Staphylococcus aureus. Briefly: Ratio of MBC to MIC against erythromycin-susceptible Staphylococcus aureus ATCC 25923.
Experiment [23] concerns Staphylococcus aureus. As to the kind of experiment: Ratio of MBC to MIC against methicilline-resistant Staphylococcus aureus ATCC43300.
For experiment [24], the system named is Enterococcus faecalis. As to the kind of experiment: Bactericidal activity against Vancomycin-susceptible Enterococcus faecalis ATCC 29212 assessed as inhibition of bacterial growth measured after 20 hrs by two-fold microdilution assay.
The test system of experiment [25] is Enterococcus faecium. Briefly: Bactericidal activity against Vancomycin-susceptible Enterococcus faecium ATCC 19434 assessed as inhibition of bacterial growth measured after 20 hrs by two-fold microdilution assay.
The subject of experiment [26] is Enterococcus faecium. Briefly: Bactericidal activity against Vancomycin-resistant Enterococcus faecium ATCC 51559 assessed as inhibition of bacterial growth measured after 20 hrs by two-fold microdilution assay.
Experiment [27] deals with Enterococcus faecalis. Briefly: Bactericidal activity against Vancomycin-resistant Enterococcus faecalis ATCC 51299 assessed as inhibition of bacterial growth measured after 20 hrs by two-fold microdilution assay.
The subject of experiment [28] is Bacillus subtilis. As to the kind of experiment: Ratio of MBC to MIC against penicillin-susceptible Bacillus subtilis ATCC 9372.

Some results are limits rather than exact numbers.

Consider `Cc1cccc2c[n+](C)c3ccc(-c4nc5ccccc5s4)cc3c12.[Cl-]`, for which the MIC in experiment [1] is 4 mg/L; in [2], 4 mg/L; in experiment [3], 2 mg/L; in [4], 4 mg/L; in [5], over 64 mg/L; in [6], over 64 mg/L. Further, the MIC was 4 mg/L in experiment [7]; 4 mg/L in [8]; 4 mg/L in experiment [9]; 4 mg/L in [10]; 4 mg/L in experiment [11]; 1 mg/L in experiment [12]. The values for the MIC in experiment [13], in experiment [14] and in experiment [15] were 8 mg/L, 16 mg/L and 16 mg/L, respectively. For the same molecule, the minimum bactericidal concentration (MBC) in experiment [16] and in experiment [17] was over 64 mg/L throughout.
Consider `Cc1cccc2c[n+](C)c3ccc(-c4ccc5ccn(Cc6ccc(C(F)(F)F)cc6)c5c4)cc3c12.[Cl-]`, for which the MIC in experiment [1] was 2 mg/L; in experiment [2], 4 mg/L; in experiment [3], 2 mg/L; in [4] it was 16 mg/L; in experiment [5], over 64 mg/L; in experiment [6], over 64 mg/L. The MIC stood at 8 mg/L in [7]; 8 mg/L in experiment [8]; 8 mg/L in experiment [9]; 16 mg/L in experiment [10]; 4 mg/L in experiment [11]; 16 mg/L in experiment [12]. Moreover, the MIC in [13], in experiment [14] and in experiment [15] was 8 mg/L in each case.
Regarding `COc1ccc2cc3[n+](cc2c1OC)CCc1cc2c(cc1-3)OCO2` [BERBERINE], the MIC in experiment [1] is over 64 mg/L; in experiment [2], over 64 mg/L; in [3], 64 mg/L; in experiment [4], 64 mg/L; in experiment [5] it was over 64 mg/L; in [6] it was over 64 mg/L. Moreover, the MIC is over 64 mg/L in experiment [7]; over 64 mg/L in experiment [8]; over 64 mg/L in experiment [9]; 64 mg/L in experiment [10]; over 64 mg/L in experiment [11]; over 64 mg/L in experiment [12]. The MIC in [13], in experiment [14] and in [15] was over 64 mg/L each time.
As for `C[n+]1cc2c3c(ccc2c2ccc4cc5c(cc4c21)OCO5)OCO3` [SANGUINARIUM], the MIC in experiment [1] is 2 mg/L; in experiment [2], 4 mg/L; in experiment [3] it was 4 mg/L; in experiment [4], 2 mg/L; in [5] it was 32 mg/L; in experiment [6], over 64 mg/L. For the same molecule, the MIC came out at 8 mg/L in experiment [7]; 16 mg/L in experiment [8]; 4 mg/L in experiment [9]; 2 mg/L in experiment [10]; 8 mg/L in experiment [11]; 16 mg/L in experiment [12]. The MIC in experiment [13] stood at 64 mg/L; in experiment [14], 32 mg/L; in [15] it was 32 mg/L. Also, the MBC in [16] was over 128 mg/L; in [18] it was 32 mg/L; in [17] it was 128 mg/L; in [19], 128 mg/L; in experiment [20], over 64 mg/L; in experiment [24], over 64 mg/L. Besides, the minimal bactericidal concentration (MBC) in experiment [25], in experiment [26] and in [27] was over 64 mg/L in each case. Moreover, the Ratio in experiment [21] is given as 8; in experiment [22] it was 32; in experiment [23], 16.
Consider `Cc1ccc2c[n+](C)c3ccc(-c4ccc5ccn(Cc6ccccc6)c5c4)cc3c2c1.[Cl-]`, for which the MIC in experiment [1] is 2 mg/L; in [2] it was 4 mg/L; in experiment [3] it was 2 mg/L; in [4] it was 4 mg/L; in experiment [5] it was over 64 mg/L; in experiment [6], over 64 mg/L. The minimum inhibitory concentration (MIC) is 4 mg/L in experiment [7]; 4 mg/L in [8]; 2 mg/L in experiment [9]; 4 mg/L in [10]; 8 mg/L in experiment [11]; 8 mg/L in [12]. Also, the MIC in [13] worked out at 4 mg/L; in [14], 4 mg/L; in [15], 16 mg/L. Also, the MBC in experiment [16] was 4 mg/L; in [18] it was 64 mg/L; in experiment [17], 32 mg/L; in experiment [19] it was 16 mg/L; in experiment [20], 64 mg/L. Besides, the Ratio was 2 in [28], 16 in experiment [21], 16 in experiment [22] and 4 in experiment [23].
For `CCCCn1ccc2ccc(-c3ccc4c(c3)c3cc(C)ccc3c[n+]4C)cc21.[Cl-]`, the MIC in experiment [1] was 4 mg/L; in experiment [2], 8 mg/L; in experiment [3] it was 2 mg/L; in experiment [4] it was 8 mg/L; in experiment [5] it was over 64 mg/L; in experiment [6], over 64 mg/L. For the same molecule, the MIC worked out at 8 mg/L in experiment [7]; 8 mg/L in [8]; 4 mg/L in experiment [9]; 16 mg/L in [10]; 16 mg/L in [11]; 8 mg/L in experiment [12]. Also, the MIC in experiment [13] came out at 8 mg/L; in experiment [14] it was 8 mg/L; in experiment [15], 16 mg/L.
